According to US7820714B2, “Siglec inhibitors” (priority 2001, dated 2010):
Read-outs that look alike come from different tables or passages of the source.

Assays:
Siglec-1 (sialoadhesin) = Siglec-1 (sialoadhesin) (Mus musculus, UniProt Q62230); assay: Hapten inhibition assay, Siglec-1 (sialoadhesin); format: binding; details: for Siglec-1 (sialoadhesin) rIP: quotient IC50 reference compound / IC50 compound; for Siglec-1 (sialoadhesin) percentage in parentheses below the IC50 bound: at the concentration of the IC50 bound, meaning not defined in the patent
Protocol: (§1) Preferably, the inhibition can be determined by a Hapten inhibition test. […] After overnight incubation at 4° C. the unbound complexes are removed by washing the cells and the bound radioactivity is determined. From the data obtained in this way, the concentrations are found which lead to 50% inhibition of the binding (IC50 values) (5, 6). Specially preferred during the Hapten inhibition test was 10 μl of the complex solution with an activity of 10^3 Bq ^125I mixed with the same volume of a solution of the substance to be investigated (concentrated three times) and incubated at 4° C. for one hour. Then followed the addition of 10 μl of a suspension of target cells, preferably 0.25 to 0.5% of human erythrocytes and incubation overnight at 4° C. The unbound radioactivity is removed by washing the cells five times with 200 μl of washing buffer, preferably phosphate-buffered saline with 0.1% (W/V) bovine serum albumin, and the cell-bound activity is determined with a γ-counter. […] The inhibition is determined in that the value without inhibitor is set to 0% and that with the sialidase-treated cells is set equal to 100%.
(§2) The IC50 value is the siglec inhibitor concentration which leads to 50% inhibition in the binding in the Hapten inhibition assay.

Siglec-4a (MAG) = molecular target: T1, Siglec-4a (MAG) (UniProt P20917); assay: Hapten inhibition assay, Siglec-4a (MAG); details: for Siglec-4a (MAG) rIP: quotient IC50 reference compound / IC50 compound; for IC50: read-out: Siglec-4a (MAG) IC50; for Siglec-4a (MAG) percentage in parentheses below the IC50 bound: at the concentration of the IC50 bound, meaning not defined in the patent
T1 sequence (P20917 1-627): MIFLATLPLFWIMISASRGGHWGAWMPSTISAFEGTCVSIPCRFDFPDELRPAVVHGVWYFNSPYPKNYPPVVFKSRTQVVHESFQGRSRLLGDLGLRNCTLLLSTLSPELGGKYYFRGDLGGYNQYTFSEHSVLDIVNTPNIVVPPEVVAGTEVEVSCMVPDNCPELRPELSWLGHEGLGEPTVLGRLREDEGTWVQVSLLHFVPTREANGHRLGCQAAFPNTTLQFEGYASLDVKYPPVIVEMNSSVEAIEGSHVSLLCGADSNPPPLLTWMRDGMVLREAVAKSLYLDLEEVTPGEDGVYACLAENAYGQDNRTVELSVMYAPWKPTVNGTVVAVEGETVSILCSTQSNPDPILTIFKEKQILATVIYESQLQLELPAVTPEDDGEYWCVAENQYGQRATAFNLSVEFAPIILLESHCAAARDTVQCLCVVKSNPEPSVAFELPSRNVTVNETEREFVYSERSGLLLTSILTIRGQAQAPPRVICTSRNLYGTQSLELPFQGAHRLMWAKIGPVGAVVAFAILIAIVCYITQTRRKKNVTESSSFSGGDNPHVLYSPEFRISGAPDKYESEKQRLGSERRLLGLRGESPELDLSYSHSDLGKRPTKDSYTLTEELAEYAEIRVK
Protocol: Preferably, the inhibition can be determined by a Hapten inhibition test. […] After overnight incubation at 4° C. the unbound complexes are removed by washing the cells and the bound radioactivity is determined. […] Then followed the addition of 10 μl of a suspension of target cells, preferably 0.25 to 0.5% of human erythrocytes and incubation overnight at 4° C. The unbound radioactivity is removed by washing the cells five times with 200 μl of washing buffer, preferably phosphate-buffered saline with 0.1% (W/V) bovine serum albumin, and the cell-bound activity is determined with a γ-counter. […] The inhibition is determined in that the value without inhibitor is set to 0% and that with the sialidase-treated cells is set equal to 100%.

Siglec-2 (murine CD22) = molecular target: T2, Siglec-2 (murine CD22) (Mus musculus, UniProt P35329); assay: Hapten inhibition assay, Siglec-2 (murine CD22); format: binding; details: for Siglec-2 (murine CD22) rIP: quotient IC50 reference compound / IC50 compound; for IC50: unit inferred
T2 sequence (P35329 22-148 limits assumed): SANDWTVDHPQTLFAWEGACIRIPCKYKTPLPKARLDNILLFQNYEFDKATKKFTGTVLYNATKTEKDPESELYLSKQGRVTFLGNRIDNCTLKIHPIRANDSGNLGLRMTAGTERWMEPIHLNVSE
Protocol: as §1, §2

Siglec-2 (human CD22) = molecular target: T3, Siglec-2 (human CD22) (Homo sapiens, UniProt P20273); assay: Hapten inhibition assay, Siglec-2 (human CD22); format: binding; details: for Siglec-2 (human CD22) rIP: quotient IC50 reference compound / IC50 compound; for IC50: unit inferred
T3 sequence (P20273 20-138 limits assumed): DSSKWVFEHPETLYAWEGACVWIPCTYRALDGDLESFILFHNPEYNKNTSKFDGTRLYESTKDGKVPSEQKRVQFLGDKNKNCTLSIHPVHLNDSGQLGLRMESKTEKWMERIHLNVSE
Protocol: as §1, §2

Sequence of Siglec-1 (sialoadhesin) (Q62230 20-136 limits assumed): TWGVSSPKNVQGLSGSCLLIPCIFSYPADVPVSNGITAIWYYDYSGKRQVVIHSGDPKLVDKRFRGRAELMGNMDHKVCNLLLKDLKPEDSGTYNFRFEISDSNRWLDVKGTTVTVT

Siglec-1 (sialoadhesin) rIP (Siglec-1 (sialoadhesin))	IC50 (Siglec-1 (sialoadhesin); unit inferred) [mM]	Siglec-4a (MAG) rIP (Siglec-4a (MAG))	IC50 (Siglec-4a (MAG); unit inferred) [mM]	Siglec-1 (sialoadhesin) percentage in parentheses below the IC50 bound (Siglec-1 (sialoadhesin))	IC50 (Siglec-1 (sialoadhesin); bounds given in mM) [mM]	Siglec-4a (MAG) percentage in parentheses below the IC50 bound (Siglec-4a (MAG))	IC50 (Siglec-4a (MAG); bounds given in mM) [mM]	Siglec-2 (murine CD22) rIP (Siglec-2 (murine CD22))	IC50 (Siglec-2 (murine CD22)) [µM]	Siglec-2 (human CD22) rIP (Siglec-2 (human CD22))	IC50 (Siglec-2 (human CD22)) [µM]	Compound
2.4	0.385	7.3	1.6	–	–	–	–	–	–	–	–	CC(=O)N[C@H]1[C@H]([C@H](O)[C@H](O)CO)O[C@@](O[C@H]2[C@@H](O)[C@@H](CO)O[C@@H](O[C@H]3[C@H](O)[C@@H](O)C(O)O[C@@H]3CO)[C@@H]2O)(C(=O)O)C[C@@H]1O (stereo partly shown) [2,3-sialyllactose, reference compound]
<0.05	–	>0.27	–	(63%)	> 10	(27%)	< 10	–	–	–	–	O=C(NC1C(O)CC(OCc2ccccc2)(C(=O)O)OC1C(O)C(O)CO)c1ccccc1 (stereo not drawn) [Benzyl-α-5-N-benzoyl-neuraminic acid]
2.7	0.25	1.5	5.3	–	–	–	–	–	–	–	–	CCCC(=O)N[C@H]1[C@H]([C@H](O)[C@H](O)CO)O[C@@](OCc2ccccc2)(C(=O)O)C[C@@H]1O [Benzyl-α-5-N-butanoyl-neuraminic acid]
3.4	0.215	4.8	2.5	–	–	–	–	–	–	–	–	CCC(=O)NC1C(O)CC(OCc2ccccc2)(C(=O)O)OC1C(O)C(O)CO (stereo not drawn) [Benzyl-α-5-N-propanoyl-neuraminic acid]
4.1	0.28	3.0	2	–	–	–	–	–	–	–	–	CC(=O)N[C@H]1[C@H]([C@H](O)[C@H](O)CO)O[C@@](SCc2ccccc2)(C(=O)O)C[C@@H]1O [Benzylthio-α-Neu5Ac]
–	–	–	–	–	–	–	–	8.3	703	1.0	1010	CO[C@]1(C(=O)O)C[C@H](O)[C@@H](NC(=O)CO)[C@H]([C@H](O)[C@H](O)CO)O1 [Methyl-α-5-N-glycolyl-neuraminic acid]
<<0.1	–	2.3	2.5	(80%)	> 10	–	–	–	–	–	–	CO[C@]1(C(=O)O)C[C@H](O)[C@@H](NC(C)=O)[C@H]([C@H](O)[C@H](O)CNC(=O)C(CNC(C)=O)NC(C)=O)O1 (stereo partly drawn) [Methyl-α-9-N-(2,3-diacetylaminopropanoyl)-amino-9-desoxy-Neu5Ac]
0.3	2.6	–	–	–	–	–	–	9.5	647	10	97	CO[C@]1(C(=O)O)C[C@H](O)[C@@H](NC(C)=O)[C@H]([C@H](O)[C@H](O)CNC(=O)c2ccccc2-c2ccccc2)O1 [Methyl-α-9-N-(biphenyl-2-carbonyl)-amino-9-desoxy-Neu5Ac]
0.3	3	–	–	–	–	–	–	48	123	29	35	CO[C@]1(C(=O)O)C[C@H](O)[C@@H](NC(C)=O)[C@H]([C@H](O)[C@H](O)CNC(=O)Cc2ccc(-c3ccccc3)cc2)O1 [Methyl-α-9-N-(biphenyl-4-acetyl)-amino-9-desoxy-Neu5Ac]
0.2	1.33	32	0.24	–	–	–	–	–	–	–	–	CCOc1c(NC[C@@H](O)[C@@H](O)[C@@H]2O[C@@](OC)(C(=O)O)C[C@H](O)[C@H]2NC(C)=O)c(=O)c1=O [Methyl-α-9-N-(ethoxycyclobutendion)-amino-9-desoxy-Neu5Ac]
<<0.1	–	0.9	5	(100%)	> 10	–	–	–	–	–	–	COC1(C(=O)O)CC(O)C(NC(C)=O)C(C(O)C(O)CNC(=O)CNC(=O)CN)O1 (stereo not drawn) [Methyl-α-9-N-(gly)2-amino-9-desoxy-Neu5Ac]
>>0.05	–	<<0.27	–	(11%)	< 10	(88%)	> 10	–	–	–	–	COC1(C(=O)O)CC(O)C(NC(C)=O)C(C(O)C(O)CNC(=O)CNC(=O)CNC(=O)CN)O1 (stereo not drawn) [Methyl-α-9-N-(gly)3-amino-9-desoxy-Neu5Ac]
–	–	7	0.367	–	–	–	–	–	–	–	–	COC1(C(=O)O)CC(O)C(NC(C)=O)C(C(O)C(O)CNC(=O)Cc2ccccc2)O1 (stereo not drawn) [Methyl-α-9-N-(phenylacetyl)-amino-9-desoxy-Neu5Ac]
<0.05	–	6.2	1.01	(62%)	> 10	–	–	–	–	–	–	COC1(C(=O)O)CC(O)C(NC(C)=O)C(C(O)C(O)CNC(=O)CC(C)=O)O1 (stereo not drawn) [Methyl-α-9-N-acetoacetyl-amino-9-desoxy-Neu5Ac]
0.3	7.48	3.3	3.4	–	–	–	–	–	–	–	–	CO[C@]1(C(=O)O)C[C@H](O)[C@@H](NC(C)=O)[C@H]([C@H](O)[C@H](O)CNC(=O)CN)O1 [Methyl-α-9-N-aminoacetyl-9-desoxy-Neu5Ac]
2.6	0.26	19	0.317	–	–	–	–	–	–	–	–	COC1(C(=O)O)CC(O)C(NC(C)=O)C(C(O)C(O)CNS(=O)(=O)c2cccc3c(N(C)C)cccc23)O1 (stereo not drawn) [Methyl-α-9-N-dansyl-amino-9-desoxy-Neu5Ac]
0.7	1.46	54	0.198	–	–	–	–	–	–	–	–	CCCCCC(=O)NCC(O)C(O)C1OC(OC)(C(=O)O)CC(O)C1NC(C)=O (stereo not drawn) [Methyl-α-9-N-hexanoyl-amino-9-desoxy-Neu5Ac]
<0.2	> 4	–	–	(57%)	–	–	–	–	–	–	–	COC1(C(=O)O)CC(O)C(NC(C)=O)C(C(O)C(O)CNC(=O)C(N)=O)O1 (stereo not drawn) [Methyl-α-9-N-oxamido-amino-9-desoxy-Neu5Ac]
0.3	6	6.5	0.733	–	–	–	–	–	–	–	–	CO[C@]1(C(=O)O)C[C@H](O)[C@@H](NC(C)=O)[C@H]([C@H](O)[C@H](O)CNC(C)=S)O1 [Methyl-α-9-N-thioacetyl-amino-9-desoxy-Neu5Ac]
0.5	4	10	0.55	–	–	–	–	–	–	–	–	COC1(C(=O)O)CC(O)C(NC(C)=O)C(C(O)C(O)CNC(=O)C(F)(F)F)O1 (stereo not drawn) [Methyl-α-9-N-trifluoracetyl-amino-9-desoxy-Neu5Ac]
<0.2	> 4	<<2.4	> 1	(63%)	–	(87%)	–	–	–	–	–	COC1(C(=O)O)CC(O)C(NC(C)=O)C(C(O)C(O)C(=O)O)O1 (stereo not drawn) [Methyl-α-9-carboxy-Neu5Ac]
<<0.05	2	0.1	3.4	–	–	–	–	–	–	–	–	CO[C@]1(C(=O)O)C[C@H](O)[C@@H](NC(C)=O)[C@H]([C@H](O)[C@H](O)CS(C)(=O)=O)O1 [Methyl-α-9-methylsulphonyl-9-desoxy-Neu5Ac]
<0.05	2	8.5	0.697	–	–	–	–	–	–	–	–	CO[C@]1(C(=O)O)C[C@H](O)[C@@H](NC(C)=O)[C@H]([C@H](O)[C@H](O)C[S+](C)[O-])O1 (stereo partly drawn) [Methyl-α-9-methylsulphoxido-9-desoxy-Neu5Ac]
<<0.05	–	<<0.27	–	–	–	(116%)	> 10	–	–	–	–	COC1(C(=O)O)CC(O)C(NC(C)=O)C(C(O)C(O)CSC)O1 (stereo not drawn) [Methyl-α-9-methylthio-9-desoxy-Neu5Ac]
–	–	–	–	–	–	–	–	7.4	620	5.7	180	Methyl-α-9-N-(cyclobutendion)-amino-9-desoxy-Neu5Ac
0.4	2.5	–	–	–	–	(90%)	> 10	–	–	–	–	Methyl-α-methyl-α-5-N-fluoracetylaminoacetyl-neuraminic acid

Compound	Siglec-1 (sialoadhesin) rIP (Siglec-1 (sialoadhesin))	IC50 (Siglec-1 (sialoadhesin); unit inferred) [mM]	Siglec-4a (MAG) rIP (Siglec-4a (MAG))	IC50 (Siglec-4a (MAG); unit inferred) [mM]	Siglec-1 (sialoadhesin) percentage in parentheses below the IC50 bound (Siglec-1 (sialoadhesin))	IC50 (Siglec-1 (sialoadhesin); bounds given in mM) [mM]	Siglec-4a (MAG) percentage in parentheses below the IC50 bound (Siglec-4a (MAG))	IC50 (Siglec-4a (MAG); bounds given in mM) [mM]	Siglec-2 (murine CD22) rIP (Siglec-2 (murine CD22))	IC50 (Siglec-2 (murine CD22)) [µM]	Siglec-2 (human CD22) rIP (Siglec-2 (human CD22))	IC50 (Siglec-2 (human CD22)) [µM]
COC(=O)C1(OC)CC(O)C(NC(=O)CF)C(C(O)C(O)CO)O1 (stereo not drawn) [Methyl-α-methyl-α-5-N-fluoracetyl-neuraminic acid]	1.9	0.625	17.1	0.28	–	–	–	–	–	–	–	–
